Assay results published in patent publication US11122807B2, “Herbicidal mixtures comprising L-glufosinate or its salt and a second herbicide” (BASF SE, priority 2017, dated 2021).

System: LOLMU (Lolium multiflorum)
Test: Greenhouse post-emergence herbicidal test, scale 0 to 100, synergism by Colby's equation
Type: in vivo
Text: Synergism can be described as an interaction where the combined effect of two or more compounds is greater than the sum of the individual effects of each of the compounds. The presence of a synergistic effect in terms of percent control, between two mixing partners (X and Y) can be calculated using the Colby equation (Colby, S. R., 1967, Calculating Synergistic and Antagonistic Responses in Herbicide Combinations, Weeds, 15, 21-22):
When the observed combined control effect is greater than the expected (calculated) combined control effect (E), then the combined effect is synergistic.
However, the weed control afforded by the compounds, mixtures or compositions is not limited to these species. The analysis of synergism or antagonism between the mixtures or compositions was determined using Colby's equation.
The culture containers used were plastic flowerpots containing loamy sand with approximately 3.0% of humus as the substrate. The seeds of the test plants were sown separately for each species and/or resistant biotype. For the pre-emergence treatment, the active ingredients, which had been suspended or emulsified in water, were applied directly after sowing by means of finely distributing nozzles. The containers were irrigated gently to promote germination and growth and subsequently covered with transparent plastic hoods until the plants had rooted. This cover caused uniform germination of the test plants, unless this had been impaired by the active ingredients. For the post-emergence treatment, the test plants were first grown to a height of 3 to 15 cm, depending on the plant habit, and only then treated with the active ingredients which had been suspended or emulsified in water. For this purpose, the test plants were either sown directly and grown in the same containers, or they were first grown separately as seedlings and transplanted into the test containers a few days prior to treatment. Depending on the species, the plants were kept at 10-25° C. or 20-35° C., respectively. The test period extended to 20 days after treatment. During this time, the plants were tended, and their response to the individual treatments was evaluated. The evaluation was carried out by using a scale from 0 to 100. 100 means no emergence of the plants or complete destruction of at least the above-ground parts, and 0 means no damage, or normal course of growth. Data shown are the mean of two replications.
L-Glufosinate: 5% EC formulation
Triaziflam: 5% EC formulation
Methiozolin: 250 g/l SC formulation

SMILES: Cc1ccsc1C1=NOC(C)(COCc2c(F)cccc2F)C1 (stereo not drawn) [methiozoline, methiozolin]
- Herbicidal activity against LOLMU, Found (methiozoline alone 125 g ai/ha, scale 0-100, Example 2): 0
- Herbicidal activity against LOLMU, Found (methiozoline alone 250 g ai/ha, scale 0-100, Example 2): 25

SMILES: CP(=O)(O)CC[C@H](N)C(=O)O [L-Glufosinate, (2S)-2-amino-4-[hydroxy(methyl)phosphinoyl]butyric acid]
- Herbicidal activity against LOLMU, Found (L-Glufosinate alone 75 g ai/ha, scale 0-100 (100 = complete destruction), Example 1): 0
- Herbicidal activity against LOLMU, Found (L-Glufosinate alone 75 g ai/ha, scale 0-100, Example 2): 0

SMILES: Cc1cc(C)cc(OCC(C)Nc2nc(N)nc(C(C)(C)F)n2)c1 (stereo not drawn) [triaziflam]
- Herbicidal activity against LOLMU, Found (triaziflam alone 125 g ai/ha, scale 0-100, Example 1): 10
- Herbicidal activity against LOLMU, Found (triaziflam alone 250 g ai/ha, scale 0-100, Example 1): 55
